# Measured values from US4521422A, “Aryl and heteroaryl[7-(aryl and heteroaryl)pyrazolo[1,5-a]pyrimidin-3-yl]methanones” (American Cyanamid Company, priority 1984, dated 1985).
# System: Brain-Specific Receptors of Rats
# Experiment: Inhibition of the binding of 3H-benzodiazepine to brain-specific receptors of rats
# Set-up: species or system rat (Wistar)
# Details: 3H-diazepam 1.5 nM or 3H-flunitrazepam 1.0 nM; rat cortex P2 fraction; test concentration not given
row,Structure (SMILES),% Inhibition
1,"O=C(c1ccco1)c1cnn2c(-c3ccccc3)ccnc12 [2-Furanyl(7-phenylpyrazolo[1,5-a]pyrimidin-3-yl)methanone]",81%
2,"O=C(c1ccccn1)c1cnn2c(-c3ccccn3)ccnc12 [2-pyridinyl[7-(2-pyridinyl)pyrazolo[1,5-a]pyrimidin-3-yl]methanone]",77%
3,"O=C(c1ccccn1)c1cnn2c(-c3cccs3)ccnc12 [2-pyridinyl[7-(2-thienyl)pyrazolo[1,5-a]pyrimidin-3-yl]methanone]",24%
4,"N#Cc1ccc(-c2ccnc3c(C(=O)c4ccccc4)cnn23)cc1 [4-(3-benzoylpyrazolo[1,5-a]pyrimidin-7-yl)benzonitrile]",10%
5,"Cc1nn2c(-c3cccc(C(F)(F)F)c3)ccnc2c1C(=O)c1ccccc1 [(2-methyl-7-[3-(trifluoromethyl)phenyl]pyrazolo[1,5-a]pyrimidin-3-yl)phenyl-methanone]",54%
6,"COc1cc(OC)cc(C(=O)c2cnn3c(-c4cccnc4)ccnc23)c1 [(3,5-dimethoxyphenyl)[7-(3-pyridinyl)pyrazolo[1,5-a]pyrimidin-3-yl]methanone]",30%
7,"O=C(c1cccc(F)c1)c1cnn2c(-c3ccc(F)cc3)ccnc12 [(3-fluorophenyl)[7-(4-fluorophenyl)pyrazolo[1,5-a]pyrimidin-3-yl]methanone]",52%
8,"O=C(c1cccc(F)c1)c1cnn2c(-c3cccc(C(F)(F)F)c3)ccnc12 [(3-fluorophenyl)[7-[3-(trifluoromethyl)phenyl]pyrazolo[1,5-a]pyrimidin-3-yl]methanone]",96%
9,"O=C(c1ccc(F)cc1)c1cnn2c(-c3cc[n+]([O-])cc3)ccnc12 [(4-Fluorophenyl)[7-(4-pyridinyl)pyrazolo[1,5-a]pyrimidin-3-yl]methanone, pyridine-1-oxide]",15%

# System: Clonic Seizures Caused by Pentylenetetrazole in Rats
# Experiment: Protection against clonic seizures caused by pentylenetetrazole in rats
# Format: in vivo
# Details: Rattus norvegicus; dose 25.0 mg/kg, oral or i.p.; pentylenetetrazole 23 mg/kg i.v. at 30 or 60 min; read-out: % of Rats Protected
# Protocol: The anti-anxiety and anticonvulsant properties of the novel compounds of the present invention have been established in a test which indicates anxiolytic and antiepileptic activity by the measure of protection from convulsions resulting from the administration of pentylenetetrazole. Single or graded dose levels of the test compounds were administered orally or intraperitoneally in a 2% starch vehicle, containing 0.5% v/v polyethylene glycol and one drop of Polysorbate 80 to groups of at least 4 rats. At 30 or 60 minutes, the rats were treated intravenously with pentylenetetrazole at a dose of 23 mg/kg of body weight. This dose is estimated to cause clonic seizures in 99% of unprotected rats. It has been reported [R. T. Hill and D. H. Tedeschi, "Animal Testing and Screening Procedures in Evaluating Psychotropic Drugs" in "An Introduction to Psychopharmacology", Eds. R. R. Rech and K. E. Moore, Raven Press, New York, pp 237-288 (1971)] that there is a high degree of correlation between antagonism of pentylenetetrazole seizures in rats and anti-anxietyor anticonvulsant effects in higher warm-blooded animals.
row,Structure (SMILES),responders at 25 mg/kg
1,"Cc1cnc2c(C(=O)c3ccccc3)cnn2c1-c1cccc(C(F)(F)F)c1 [[6-methyl-7-[3-(trifluoromethyl)phenyl]pyrazolo[1,5-a]pyrimidin-3-yl]phenylmethanone]",25%
2,"O=C(c1ccc(C(F)(F)F)cc1)c1cnn2c(-c3ccc(Cl)c(Cl)c3)ccnc12 [[7-(3,4-dichlorophenyl)pyrazolo[1,5-a]pyrimidin-3-yl][4-(trifluoromethyl)phenyl]methanone]",50%
3,"O=C(c1cccs1)c1cnn2c(-c3cccc(F)c3)ccnc12 [[7-(3-fluorophenyl)pyrazolo[1,5-a]pyrimidin-3-yl]-2-thienylmethanone]",25%
4,"COc1cc(C(=O)c2cnn3c(-c4cccnc4)ccnc23)cc(OC)c1OC [[7-(3-pyridinyl)pyrazolo[1,5-a]pyrimidin-3-yl](3,4,5-trimethoxyphenyl)methanone]",25%
5,"COc1ccccc1C(=O)c1cnn2c(-c3ccc(F)cc3)ccnc12 [[7-(4-fluorophenyl)pyrazolo[1,5-a]pyrimidin-3-yl](2-methoxyphenyl)methanone]",50%
6,"O=C(c1ccncc1)c1cnn2c(-c3ccc(F)cc3)ccnc12 [[7-(4-fluorophenyl)pyrazolo[1,5-a]pyrimidin-3-yl]-4-pyridinylmethanone]",75%
7,"O=C(c1cccc(C(F)(F)F)c1)c1cnn2c(-c3ccc(F)cc3)ccnc12 [[7-(4-fluorophenyl)pyrazolo[1,5-a]pyrimidin-3-yl][3-(trifluoromethyl)phenyl]methanone]",25%
8,"COc1cc(C(=O)c2cnn3c(-c4ccncc4)ccnc23)cc(OC)c1OC [[7-(4-pyridinyl)pyrazolo[1,5-a]pyrimidin-3-yl](3,4,5-trimethoxyphenyl)methanone]",25%
9,"O=C(c1ccsc1)c1cnn2c(-c3ccncc3)ccnc12 [[7-(4-pyridinyl)pyrazolo[1,5-a]pyrimidin-3-yl]-3-thienylmethanone]",50%
10,"CSc1ccc(-c2ccnc3c(C(=O)c4ccccc4)cnn23)cc1 [[7-[4-(methylthio)phenyl]pyrazolo[1,5-a]pyrimidin-3-yl]phenylmethanone]",50%
